Results taken from patent US20130310436A1, “METHODS FOR PREDICTING RESPONSE TO BETA-BLOCKER THERAPY IN NON-ISCHEMIC HEART FAILURE PATIENTS” (The Regents of the University of Colorado, a body corporate, priority 2012, published 2013).

Experiments:
Type in all cases: in vivo, human
[1] = system: patients with non-ischemic HFREF; assay: BEST trial retrospective analysis: LVEF response (improvement in LVEF ≧5% with final LVEF ≧35%, MUGA), bucindolol vs placebo, by latent class subtype
Excerpt: (§1) Methods: A total of 1121 patients with non-ischemic HFREF from the β-blocker Evaluation of Survival Trial were categorized according to 27 clinical features. See Tables 1 and 2 for the clinical features or information used. Latent class analysis was used to generate two latent class models, LCM A and B, Tables 3 and 4, respectively, to identify HFREF subtypes. LCM A consisted of features associated with HF pathogenesis, whereas LCM B consisted of markers of HF progression and severity. The Seattle Heart Failure Model (SHFM) Score was also calculated for all patients. Mortality, improvement in left ventricular ejection fraction (LVEF) defined as an increase in LVEF ≧5% and a final LVEF of […] after 12 months, and effect of bucindolol on both outcomes were compared across HFREF subtypes. Performance of models that included a combination of LCM subtypes and SHFM scores towards predicting mortality and LVEF response was estimated and subsequently validated using leave-one-out cross-validation and data from the Multicenter Oral Carvedilol Heart Failure Assessment (MOCHA) Trial.
(§2) Methods: All patients had New York Heart Association (NYHA) class III or IV HFREF (LVEF ≦35%) and were randomized in a double-blind fashion to either bucindolol (a β-blocker) or placebo. Patients were considered ischemic if they had ≧70% obstruction in a major epicardial coronary artery by angiography or evidence of prior myocardial infarction and excluded from this analysis. The primary endpoint was cumulative all-cause mortality. Secondary endpoints were all-cause mortality at one year and LVEF response defined as improvement in LVEF ≧5% with a final LVEF of ≧35% as measured using multi-gated acquisition scan (MUGA). […] They were randomized to placebo, low (6.25 mg bid), medium (12.5 mg bid), or high-dose (25 mg bid) carvedilol. Death and LVEF improvement as measured by MUGA were secondary endpoints in the original MOCHA analysis. Mortality data was only available up to one year of follow-up in MOCHA.
(§3) Association between latent class models and outcomes: Cox proportional-hazards models and the log-rank test were used to examine the associations between latent classes and cumulative all-cause mortality according to the intention-to-treat principle. These models were fit using the coxph and survfit functions from the survival library in the R statistical package. Logistic regression models were used for the one-year mortality and LVEF response outcomes. Interactions between latent classes and the treatment groups were used to estimate the response to treatment within each subtype.

[2] = system: patients with non-ischemic HFREF; assay: BEST trial retrospective analysis: all-cause mortality at one year, bucindolol vs placebo, by latent class subtype
Excerpt: as §1
as §2, with “MOCHA. […]” for “MOCHA.”

[3] = system: patients with non-ischemic HFREF; assay: BEST trial retrospective analysis: cumulative all-cause mortality, bucindolol vs placebo, by latent class subtype
Excerpt: as §1, §2, §3

CC(C)(Cc1c[nH]c2ccccc12)NCC(O)COc1ccccc1C#N (stereo not shown) [bucindolol]
likelihood of LVEF response with bucindolol ([1]; LCM A subtype A1): no effect
likelihood of LVEF response with bucindolol ([1]; LCM A subtype A2): significant increase
absolute increase in likelihood of LVEF response ([1]; LCM A subtype A3): 24.3%
likelihood of LVEF response with bucindolol ([1]; LCM A subtype A3): significant increase
relative increase in likelihood of LVEF response ([1]; LCM A subtype A3): 156%
likelihood of LVEF response with bucindolol ([1]; LCM A subtype A5): significant increase
likelihood of LVEF response with bucindolol ([1]; LCM A subtype A6): significant increase
likelihood of improvement in LVEF ([1]; LCM B subtype B1): reached statistical significance
likelihood of improvement in LVEF ([1]; LCM B subtype B2): reached statistical significance
likelihood of improvement in LVEF ([1]; all LCM B subtypes, relative and absolute terms): increased comparably
effect of bucindolol on one-year mortality ([2]; LCM A subtype A3, at 12 months, disappeared at subsequent follow-up): marginally significant difference
effect of bucindolol on one-year mortality ([2]; LCM A subtype A6, did not reach statistical significance): trended towards benefit
effect of bucindolol on one-year mortality ([2]; LCM B subtype B2, did not reach statistical significance): trended towards benefit
reduction in cumulative all-cause mortality associated with bucindolol ([3]; LCM A subtype A1): no reduction
reduction in mortality with bucindolol ([3]; LCM A subtype A2 (discussion)): no significant reduction
all-cause mortality with bucindolol ([3]; LCM A subtype A6, only LCM A subtype (discussion)): decrease
absolute risk reduction, cumulative all-cause mortality ([3]; LCM A subtype A6, p=0.01): 10.2%
relative risk reduction, cumulative all-cause mortality ([3]; LCM A subtype A6, p=0.01): 42%
improvement in mortality associated with bucindolol ([3]; LCM B subtype B2, p=0.01): significant improvement
overall effect of bucindolol ([3]; all non-ischemic BEST patients (discussion)): not significant
patients in the bucindolol group died (cumulative all-cause mortality) ([3]; all non-ischemic BEST patients, 131/558): 23.5%
HR, cumulative all-cause mortality, bucindolol vs placebo ([3]; all non-ischemic BEST patients, 95% CI 0.65-1.04, p=0.1): 0.82
